Reference: ChEMBL document CHEMBL1149493, “Benzodiazepine calcitonin gene-related peptide (CGRP) receptor antagonists: optimization of the 4-substituted piperidine” (Bioorg Med Chem Lett, 2006)
Calls of active or inactive are those of the source. The calls are words filed in the database; no cut-off is given here.

Tests used:
[1] = target: T1, Calcitonin gene-related peptide type 1 receptor (Homo sapiens, UniProt O60894+Q16602); test: Activity at CGRP receptor assessed as inhibition of CGRP-stimulated cAMP production; assay type: functional
[2] = target: T1, Calcitonin gene-related peptide type 1 receptor; test: (§1) Displacement of [125I]CGRP from human recombinant CGRP receptor
[3] = target: Calcitonin gene-related peptide type 1 receptor (Homo sapiens) (UniProt Q16602); test: as §1
Sequence of Calcitonin gene-related peptide type 1 receptor (Homo sapiens) (Q16602 whole entry): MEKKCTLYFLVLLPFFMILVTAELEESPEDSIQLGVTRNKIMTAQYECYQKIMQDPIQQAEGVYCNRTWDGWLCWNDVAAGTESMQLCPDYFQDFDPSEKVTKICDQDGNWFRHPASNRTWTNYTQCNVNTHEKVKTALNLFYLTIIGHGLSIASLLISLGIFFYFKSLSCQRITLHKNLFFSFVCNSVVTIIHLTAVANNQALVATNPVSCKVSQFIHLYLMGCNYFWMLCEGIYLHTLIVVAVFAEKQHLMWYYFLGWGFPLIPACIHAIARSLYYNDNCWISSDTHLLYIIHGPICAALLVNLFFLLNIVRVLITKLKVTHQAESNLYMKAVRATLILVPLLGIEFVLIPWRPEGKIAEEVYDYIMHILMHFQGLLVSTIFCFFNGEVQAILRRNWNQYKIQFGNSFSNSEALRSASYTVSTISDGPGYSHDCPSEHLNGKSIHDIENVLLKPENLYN

T1 sequence (Q16602 whole entry, one chain of several): as the sequence (Q16602 whole entry) above

SMILES	IC50 [1]	Ki [2]	Activity [3]
O=C(N[C@@H]1N=C(c2ccccc2)c2ccccc2N(CC(F)(F)F)C1=O)N1CCC(n2nc(-c3ccccc3)[nH]c2=O)CC1	100 nM	26 nM	
O=C(N[C@@H]1N=C(c2ccccc2)c2ccccc2N(CC(F)(F)F)C1=O)N1CCC(n2cc(-c3cccc(F)c3)nc2O)CC1	46 nM	11 nM	
O=C(N[C@@H]1N=C(c2ccccc2)c2ccccc2N(CC(F)(F)F)C1=O)N1CCC(n2c(=O)[nH]c3ccncc32)CC1	1400 nM	853 nM	
O=C(N[C@@H]1N=C(c2ccccc2)c2ccccc2N(CC(F)(F)F)C1=O)N1CCC(N2CC(c3ccncc3)NC2=O)CC1 (stereo partly specified)	804 nM	720 nM	
O=C(N[C@@H]1N=C(c2ccccc2)c2ccccc2N(CC(F)(F)F)C1=O)N1CCC(n2c(O)nc3c(F)cccc32)CC1	373 nM	375 nM	
O=C(N[C@@H]1N=C(c2ccccc2)c2ccccc2N(CC(F)(F)F)C1=O)N1CCC(N2CC(c3cccnc3)NC2=O)CC1 (stereo partly specified)		1050 nM	
O=C(N[C@@H]1N=C(c2ccccc2)c2ccccc2N(CC(F)(F)F)C1=O)N1CCC(N2C(=O)NCc3ccccc32)CC1			inactive
O=C(N[C@@H]1N=C(c2ccccc2)c2ccccc2N(CC(F)(F)F)C1=O)N1CCC(n2c(=O)[nH]c3c4ccccc4ccc32)CC1	369 nM	27 nM	
O=C(N[C@@H]1N=C(c2ccccc2)c2ccccc2N(CC(F)(F)F)C1=O)N1CCC(N2CC(c3ccccc3)NC2=O)CC1 (stereo partly specified)	790 nM	339 nM	
O=C(N[C@@H]1N=C(c2ccccc2)c2ccccc2N(CC(F)(F)F)C1=O)N1CCC(n2cc(Cc3ccccc3)[nH]c2=O)CC1	450 nM	1130 nM	
O=C(N[C@@H]1N=C(c2ccccc2)c2ccccc2N(CC(F)(F)F)C1=O)N1CCC(N2CCNC2=O)CC1	3100 nM	855 nM	
Cc1ccc(-c2cn(C3CCN(C(=O)N[C@@H]4N=C(c5ccccc5)c5ccccc5N(CC(F)(F)F)C4=O)CC3)c(=O)[nH]2)cc1	85 nM	6.3 nM	
O=C(N[C@@H]1N=C(c2ccccc2)c2ccccc2N(CC(F)(F)F)C1=O)N1CCC(n2cc[nH]c2=O)CC1	672 nM	583 nM	
O=C(N[C@@H]1N=C(c2ccccc2)c2ccccc2N(CC(F)(F)F)C1=O)N1CCC(n2c(O)nc3cc(Cl)ccc32)CC1		> 10000 nM	
O=C(N[C@@H]1N=C(c2ccccc2)c2ccccc2N(CC(F)(F)F)C1=O)N1CCC(N2CC(c3ccccn3)NC2=O)CC1 (stereo partly specified)		2000 nM	
O=C(N[C@@H]1N=C(c2ccccc2)c2ccccc2N(CC(F)(F)F)C1=O)N1CCC(N2Cc3ccncc3NC2=O)CC1	224 nM	350 nM	
O=C(N[C@@H]1N=C(c2ccccc2)c2ccccc2N(CC(F)(F)F)C1=O)N1CCC(n2c(=O)[nH]c3ncncc32)CC1	430 nM	51 nM	
Cc1cccc2nc(O)n(C3CCN(C(=O)N[C@@H]4N=C(c5ccccc5)c5ccccc5N(CC(F)(F)F)C4=O)CC3)c12		20000 nM	
O=C(N[C@@H]1N=C(c2ccccc2)c2ccccc2N(CC(F)(F)F)C1=O)N1CCC(n2c(=O)[nH]c3ccccc32)CC1		2250 nM	
O=C(N[C@@H]1N=C(c2ccccc2)c2ccccc2N(CC(F)(F)F)C1=O)N1CCC(N2Cc3cccnc3NC2=O)CC1	616 nM	295 nM	
O=C(N[C@@H]1N=C(c2ccccc2)c2ccccc2N(CC(F)(F)F)C1=O)N1CCC(n2c(O)nc3cc(F)ccc32)CC1		2800 nM	
O=C(N[C@@H]1N=C(c2ccccc2)c2ccccc2N(CC(F)(F)F)C1=O)N1CCC(n2cc(-c3ccccc3)[nH]c2=O)CC1	14 nM	11 nM	
O=C(N[C@@H]1N=C(c2ccccc2)c2ccccc2N(CC(F)(F)F)C1=O)N1CCC(n2c(=O)[nH]c3nccnc32)CC1	286 nM	156 nM	
COc1ccc(-c2cn(C3CCN(C(=O)N[C@@H]4N=C(c5ccccc5)c5ccccc5N(CC(F)(F)F)C4=O)CC3)c(=O)[nH]2)cc1	193 nM	205 nM	
O=C(N[C@@H]1N=C(c2ccccc2)c2ccccc2N(CC(F)(F)F)C1=O)N1CCC(n2cc(-c3ccc(F)cc3)[nH]c2=O)CC1	107 nM	11 nM	
O=C(N[C@@H]1N=C(c2ccccc2)c2ccccc2N(CC(F)(F)F)C1=O)N1CCC(n2c(=O)[nH]c3cnccc32)CC1	1380 nM	685 nM	

SMILES	IC50 [1]	Ki [2]	Activity [3]
CC(C)c1cn(C2CCN(C(=O)N[C@@H]3N=C(c4ccccc4)c4ccccc4N(CC(F)(F)F)C3=O)CC2)c(=O)[nH]1		5340 nM	
O=C(N[C@@H]1N=C(c2ccccc2)c2ccccc2N(CC(F)(F)F)C1=O)N1CCC(n2c(O)nc3c(Cl)cccc32)CC1	446 nM	143 nM	
O=C(O)c1cn(C2CCN(C(=O)N[C@@H]3N=C(c4ccccc4)c4ccccc4N(CC(F)(F)F)C3=O)CC2)c(=O)[nH]1		2900 nM	
Cc1cccc2c1nc(O)n2C1CCN(C(=O)N[C@@H]2N=C(c3ccccc3)c3ccccc3N(CC(F)(F)F)C2=O)CC1		6900 nM	
O=C(N[C@@H]1N=C(c2ccccc2)c2ccccc2N(CC(F)(F)F)C1=O)N1CCC(n2c(O)nc3c2ccc[n+]3[O-])CC1		1000 nM	
COc1cccc(-c2cn(C3CCN(C(=O)N[C@@H]4N=C(c5ccccc5)c5ccccc5N(CC(F)(F)F)C4=O)CC3)c(O)n2)c1	5.1 nM	1.1 nM	
O=C(N[C@@H]1N=C(c2ccccc2)c2ccccc2N(CC(F)(F)F)C1=O)N1CCC(n2cc(-c3ccc(OC(F)F)cc3)nc2O)CC1	74 nM	19 nM	
O=C(N[C@@H]1N=C(c2ccccc2)c2ccccc2N(CC(F)(F)F)C1=O)N1CCC(n2c(=O)[nH]c3cccnc32)CC1	1140 nM	427 nM	
CS(=O)(=O)c1ccc2c(c1)[nH]c(=O)n2C1CCN(C(=O)N[C@@H]2N=C(c3ccccc3)c3ccccc3N(CC(F)(F)F)C2=O)CC1	220 nM	260 nM	
N#Cc1cn(C2CCN(C(=O)N[C@@H]3N=C(c4ccccc4)c4ccccc4N(CC(F)(F)F)C3=O)CC2)c(=O)[nH]1	990 nM	575 nM	
O=C(N[C@@H]1N=C(c2ccccc2)c2ccccc2N(CC(F)(F)F)C1=O)N1CCC(N2Cc3ncccc3NC2=O)CC1	1840 nM	965 nM	
O=C(N[C@@H]1N=C(c2ccccc2)c2ccccc2N(CC(F)(F)F)C1=O)N1CCC(n2c(=O)[nH]c3ncccc32)CC1	49 nM	23 nM	
O=C(N[C@@H]1N=C(c2ccccc2)c2ccccc2N(CC(F)(F)F)C1=O)N1CCC(n2cc(CO)[nH]c2=O)CC1		20000 nM	
COC(=O)c1cn(C2CCN(C(=O)N[C@@H]3N=C(c4ccccc4)c4ccccc4N(CC(F)(F)F)C3=O)CC2)c(=O)[nH]1	156 nM	110 nM	
O=C(N[C@@H]1N=C(c2ccccc2)c2ccccc2N(CC(F)(F)F)C1=O)N1CCC(N2Cc3ccccc3NC2=O)CC1	34 nM	48 nM	
O=C(N[C@@H]1N=C(c2ccccc2)c2ccccc2N(CC(F)(F)F)C1=O)N1CCC(n2c(O)nc3cccc(Cl)c32)CC1		6400 nM	
O=C1CN(C2CCN(C(=O)N[C@@H]3N=C(c4ccccc4)c4ccccc4N(CC(F)(F)F)C3=O)CC2)C(=O)N1	100 nM	29 nM	
O=C(O)c1ccc2c(c1)[nH]c(=O)n2C1CCN(C(=O)N[C@@H]2N=C(c3ccccc3)c3ccccc3N(CC(F)(F)F)C2=O)CC1	715 nM	810 nM	
O=C(N[C@@H]1N=C(c2ccccc2)c2ccccc2N(CC(F)(F)F)C1=O)N1CCC(n2cc(-c3ccc(OC(F)(F)F)cc3)[nH]c2=O)CC1	431 nM	104 nM	
O=C(N[C@@H]1N=C(c2ccccc2)c2ccccc2N(CC(F)(F)F)C1=O)N1CCC(n2c(=O)[nH]c3ccc(F)cc32)CC1	1400 nM	983 nM	
O=C(N[C@@H]1N=C(c2ccccc2)c2ccccc2N(CC(F)(F)F)C1=O)N1CCC(N2Cc3cnccc3NC2=O)CC1	627 nM	320 nM	
NC(=O)c1ccc2c(c1)[nH]c(=O)n2C1CCN(C(=O)N[C@@H]2N=C(c3ccccc3)c3ccccc3N(CC(F)(F)F)C2=O)CC1		1050 nM	
Cc1ccc2c(c1)[nH]c(=O)n2C1CCN(C(=O)N[C@@H]2N=C(c3ccccc3)c3ccccc3N(CC(F)(F)F)C2=O)CC1		6100 nM	
O=C(N[C@@H]1N=C(c2ccccc2)c2ccccc2N(CC(F)(F)F)C1=O)N1CCC(n2cc(-c3ccccn3)[nH]c2=O)CC1	37 nM	27 nM	
O=C(N[C@@H]1N=C(c2ccccc2)c2ccccc2N(CC(F)(F)F)C1=O)N1CCC(n2c(O)nc3cc(C(F)(F)F)ccc32)CC1		3800 nM	
